Activity calls are given as the source filed them. How the calls were made is not given here.
Molecular target: Influenza A virus M2 proton channel (A/TW/4845/1999 H1N1)
Experiment: M2 proton channel binding, NMR based, influenza A virus H1N1 strain (AID 1549)
Settings: NMR binding screen, M2 protein

Row | Compound | Kd
1 | O=C1CCCN1c1ccc(S(=O)O)cc1 | > 4 mM (inactive)
2 | COc1cnn(Cc2ccccc2)c(=O)c1Cl | > 4 mM (inactive)
3 | Cn1ncc(C(=O)O)c1-c1ccccc1 | > 4 mM (inactive)
4 | O=C1C2=C(SCCS2)C(=O)N1CCCO | > 4 mM (inactive)
5 | CC1C[C@H]2CC(=O)[C@H]3CCCN4CCC[C@H]2[C@]34C1 (some centres not stated) | > 4 mM (inactive)
6 | O=C(Nc1ccncc1)Nc1ccc(F)cc1F | > 4 mM (inactive)
7 | S=c1nc(C2CC2)[nH]c2ccccc12 | > 4 mM (inactive)
8 | CC12CN([N+](=O)[O-])C3(C(N)=O)CC1CCC23C (configuration not stated) | > 4 mM (inactive)
9 | Nc1oncc1-c1ccccn1 | > 4 mM (inactive)
10 | COCc1nc(-c2cc(Br)ccc2OC)no1 | > 4 mM (inactive)
11 | S=C1NC(=S)NC(c2ccc3c(c2)OCO3)N1 | > 4 mM (inactive)
12 | CN=C(C)c1c(O)n(C)c(=S)n(C)c1=O | > 4 mM (inactive)
13 | COc1ccc2c(c1)[nH]c1c(C)nccc12 | > 4 mM (inactive)
14 | CC1(C)C=CC(=O)[C@@]2(C)C1CC(=O)[C@]1(C)C2CC[C@@]2(C)[C@H](c3ccoc3)OC(=O)C3OC321 (some centres not stated) | > 4 mM (inactive)
15 | CN(C)C(=O)c1ccc(-c2n[nH]c(=O)c3ccccc23)cc1 | > 4 mM (inactive)
16 | O=C1NC(=S)NC(=O)C1=Cc1ccco1 | > 4 mM (inactive)
17 | O=C(O)CN(CCCc1ccccc1)CC(=O)O | > 4 mM (inactive)
18 | COc1ccc(N/C(N)=N\c2nc(C)cc(C)n2)cc1 | > 4 mM (inactive)
19 | CC(C)c1c(O)c(-c2cc3c(c(C(C)C)c2O)CCC2C(C)(C)CCC[C@]32C)cc2c1CCC1C(C)(C)CCC[C@]21C (some centres not stated) | > 4 mM (inactive)
20 | CC(=O)NC1=NN(c2ccccc2)C(=O)C1 | > 4 mM (inactive)
21 | COc1ccc2[nH]cc(CN(C)C)c2c1 | > 4 mM (inactive)
22 | CNc1nnc(CSc2nc(C)cc(C)n2)s1 | > 4 mM (inactive)
23 | CC(C)c1c(O)ccc2c1CCC1[C@@](C)(CO)CCC[C@]21C (some centres not stated) | > 4 mM (inactive)

Row | Compound | Kd
24 | O=C(O)CC1C(=O)NCCN1Cc1ccccc1 (configuration not stated) | > 4 mM (inactive)
25 | Nc1ccc2nccnc2c1 | > 4 mM (inactive)
26 | COc1ccc2c(c1)OC/C(=C/c1ccc(O)c(O)c1)C2=O | > 4 mM (inactive)
27 | COc1ccc(C)cc1S(N)(=O)=O | > 4 mM (inactive)
28 | NC(=O)C1CCN(C(=O)c2ccccc2F)CC1 | > 4 mM (inactive)
29 | CCOc1cccc(C(=O)c2ccc(O)c(O)c2O)c1 | > 4 mM (inactive)
30 | [O-][n+]1onc2c1CCc1c-2nc(-c2ccccc2)n1O | > 4 mM (inactive)
31 | Nc1[nH]c(=S)[nH]c(=O)c1-c1ccccc1 | > 4 mM (inactive)
32 | Cn1nc(C(=O)Nc2cccnc2)c2ccccc2c1=O | > 4 mM (inactive)
33 | COC1C(O)C(O[C@H]2CC[C@]3(C=O)C4C(CC[C@]3(O)C2)[C@@]2(O)CC[C@H](C3=CC(=O)OC3)[C@@]2(C)C[C@H]4OC(C)=O)OC(C)C1OC(C)=O (some centres not stated) | > 4 mM (inactive)
34 | OC[C@H]1O[C@@H](O[C@H]2[C@H](O)[C@@H](O)[C@@H](O)O[C@@H]2CO)[C@H](O)[C@@H](O)[C@@H]1O | > 4 mM (inactive)
35 | COc1ccc(C(=O)/C=C/c2ccccc2)cc1 | > 4 mM (inactive)
36 | O=C1CNC(=O)N1Cc1ccc(F)cc1 | > 4 mM (inactive)
37 | Nc1ccc2c(c1)CCC2=O | > 4 mM (inactive)
38 | O=C1NC(=S)NC(=O)C1=Cc1ccncc1 | > 4 mM (inactive)
39 | Cc1sc2nc(C)n(NC(N)=O)c(=O)c2c1C | > 4 mM (inactive)
40 | CC(=O)Oc1cc(-c2coc3cc(OC(C)=O)c(OC(C)=O)c(OC(C)=O)c3c2=O)cc(OC(C)=O)c1OC(C)=O | > 4 mM (inactive)
41 | Cc1nnc(NCCCO)[nH]c1=O | > 4 mM (inactive)
42 | Cc1onc(-c2ccccc2)c1CN | > 4 mM (inactive)
43 | NC1C2CC3CC1CC(O)(C3)C2 (configuration not stated) | > 4 mM (inactive)
44 | Cc1occc1C(=O)N1CCC2(CC1)OCCO2 | > 4 mM (inactive)
45 | CC(=O)Nc1cc(N2C(=O)C=CC2=O)ccc1Cl | > 4 mM (inactive)
46 | O=C(O)c1cccnc1-c1nc2ccccc2s1 | > 4 mM (inactive)

Row | Compound | Kd
47 | NC1=NC(=O)CC(C(=O)Nc2ccccc2)S1 (configuration not stated) | > 4 mM (inactive)
48 | O=C1CC(C(=O)O)c2ccccc21 (configuration not stated) | > 4 mM (inactive)
49 | COc1cc(O)c2c(c1)C(=O)c1cc(C)cc(O)c1C2=O | > 4 mM (inactive)
50 | COC1=C(OC)C(=O)C(C/C=C(\C)CC/C=C(\C)CC/C=C(\C)CC/C=C(/C)CC/C=C(\C)CC/C=C(\C)CC/C=C(\C)CC/C=C(\C)CC/C=C(\C)CCC=C(C)C)=C(C)C1=O | > 4 mM (inactive)
51 | C/C=C/C(=O)Nc1ccc(NC(C)=O)cc1 | > 4 mM (inactive)
52 | COCC(=O)Nc1c(C(N)=O)oc2ccccc12 | > 4 mM (inactive)
53 | O=C(Nc1ccccc1Cl)c1cnccn1 | > 4 mM (inactive)
54 | Cc1nnsc1C(=O)O | > 4 mM (inactive)
55 | CC(=O)O[C@@H]1c2c(ccc3ccc(=O)oc23)OC(C)(C)[C@@H]1OC(=O)CC(C)C | > 4 mM (inactive)
56 | COc1ccc(C(C)=O)c(OC)c1 | > 4 mM (inactive)
57 | O=C(O)c1cccnc1 | > 4 mM (inactive)
58 | O=C1CCC([N+](=O)[O-])C(c2ccccc2F)N1 (configuration not stated) | > 4 mM (inactive)
59 | CC(=O)O[C@H]1C[C@@H](OC(C)=O)C(C)(C)C2CC(=O)[C@]3(C)C(CC[C@@]4(C)[C@H](c5ccoc5)OC(=O)[C@H]5O[C@]543)[C@]21C (some centres not stated) | > 4 mM (inactive)
60 | COc1ccc(Cl)cc1NC(=O)c1ccco1 | > 4 mM (inactive)
61 | Cc1ccccc1NC(=O)CC1NCCNC1=O (configuration not stated) | > 4 mM (inactive)
62 | COc1cc(OC)c2c(=O)c(-c3ccc4c(c3)OCO4)coc2c1 | > 4 mM (inactive)
63 | C[C@@H]1C(=O)OC2[C@H](O)C34[C@@H]5OC(=O)[C@@]3(O[C@@H]3OC(=O)[C@H](O)[C@@]34[C@H](C(C)(C)C)[C@H]5O)[C@]21O (some centres not stated) | > 4 mM (inactive)
64 | NC(=O)CN1CCCCCC1=O | > 4 mM (inactive)
65 | O=C(c1cnsn1)N1CCN(c2ccccc2)CC1 | > 4 mM (inactive)
66 | CCc1cc2c(SCC(=O)O)ncnc2s1 | > 4 mM (inactive)
67 | CC(C)(C)NC(=O)N1CCC(C(=O)O)CC1 | > 4 mM (inactive)
68 | Cc1occc1C(=O)Nc1nnc(C2CCCCC2)s1 | > 4 mM (inactive)
69 | Cc1nnc(SCC(=O)N2CCCCC2)s1 | > 4 mM (inactive)

Row | Compound | Kd
70 | CC(=O)c1csc(-c2cc(C)on2)n1 | > 4 mM (inactive)
71 | NS(=O)(=O)c1ccc(NC(=O)c2ccccc2F)cc1 | > 4 mM (inactive)
72 | Cc1cc[n+](-c2nc([O-])sc2C=O)cc1 | > 4 mM (inactive)
73 | O=C(O)c1cnn2ccccc12 | > 4 mM (inactive)
74 | Nc1ncnc2c1ncn2CCOc1ccccc1 | > 4 mM (inactive)
75 | O=[n+]1c(CO)c(CO)n([O-])c2ccccc21 | > 4 mM (inactive)
76 | CC1=NN(c2ccc(N)cc2)C(=O)C1 | > 4 mM (inactive)
77 | OCc1nccn1Cc1ccccc1 | > 4 mM (inactive)
78 | CN1CCN(C(=S)c2ccc(N(C)C)cc2)CC1 | > 4 mM (inactive)
79 | C[C@@H]1O[C@@H](O[C@H]2[C@H](Oc3cc(O)c4c(=O)cc(-c5ccc(O)cc5)oc4c3)O[C@H](CO)[C@@H](O)[C@@H]2O)[C@H](O)[C@H](O)[C@H]1O | > 4 mM (inactive)
80 | CC1=NN(C(N)=S)C(C)(C)C1 | > 4 mM (inactive)
81 | O=C(c1ncc[nH]1)c1ccccc1C(=O)N1CCOCC1 | > 4 mM (inactive)
82 | CC(=O)N1CCc2ccccc2C1CC(=O)O (configuration not stated) | > 4 mM (inactive)
83 | O=C(Nc1ccc2c(c1)OCCO2)c1c(F)cccc1F | > 4 mM (inactive)
84 | COc1ncnc(N)c1[N+](=O)[O-] | > 4 mM (inactive)
85 | COc1nc(C)ccc1-c1noc(-c2ccco2)n1 | > 4 mM (inactive)
86 | Cc1ccc(F)cc1NC(=O)c1ccc2c(c1)OCO2 | > 4 mM (inactive)
87 | O=C1CSC(=Nc2ccc(C(=O)O)cc2)N1 | > 4 mM (inactive)
88 | Oc1cccc2[nH]ccc12 | > 4 mM (inactive)
89 | CC(=O)Nc1cccc(-c2nnc3n2CC(C)S3)c1 (configuration not stated) | > 4 mM (inactive)
90 | CC(CC(O)C1OC1(C)C)[C@@H]1CCC2(C)C3=CCC4C(C)(C)C(=O)CCC4(C)C3CC[C@@]12C (some centres not stated) | > 4 mM (inactive)
91 | Nc1nnc(SCc2ccc(F)cc2)s1 | > 4 mM (inactive)
92 | Cc1ccc(CCC(N)=O)o1 | > 4 mM (inactive)

Row | Compound | Kd
93 | C=CCn1c(=S)[nH]c2ccc(Br)cc2c1=O | > 4 mM (inactive)
94 | CC(C)(C)Cc1nc(-c2ccccn2)no1 | > 4 mM (inactive)
95 | COc1c2c(cc3c1OCO3)CCN(C)C2 | > 4 mM (inactive)
96 | COC(=O)c1noc(C)c1C(C)=O | > 4 mM (inactive)
97 | O=C(Nc1ccon1)c1csc2c1CCCC2 | > 4 mM (inactive)
98 | Cc1[nH]ccc2c1[nH]c1cc(=O)ccc12 | > 4 mM (inactive)
99 | CCCn1c(C)cc(=O)[nH]c1=O | > 4 mM (inactive)
100 | O=c1[nH]c(O)c(C=NC2CC2)c(=O)[nH]1 | > 4 mM (inactive)
101 | COc1ccc2c(c1)O[C@H]1c3ccc(OC)cc3OC[C@@H]21 | > 4 mM (inactive)
102 | Cc1ccc(-c2nc(-c3cccnc3)no2)c(C)c1 | > 4 mM (inactive)
103 | CC(=O)c1sc2nc(N)nn2c1C | > 4 mM (inactive)
104 | O=S(=O)(c1cccc(Cl)c1)N1CCCC1 | > 4 mM (inactive)
105 | NC(=O)CSc1nnc2ccc(-c3ccccn3)nn12 | > 4 mM (inactive)
106 | CN1CCC(NC(=S)NC2CC2)CC1 | > 4 mM (inactive)
107 | O=C(O)c1ccc(CSc2ncn[nH]2)cc1 | > 4 mM (inactive)
108 | O=C(O)c1ccc(-c2ccccn2)s1 | > 4 mM (inactive)
109 | O=C1Nc2ccccc2C12OCCO2 | > 4 mM (inactive)
110 | O=C(NC(O)C(=O)c1ccccc1)c1ccco1 (configuration not stated) | > 4 mM (inactive)
111 | Cc1n[nH]c(C)c1NC(=O)c1cccc(F)c1 | > 4 mM (inactive)
112 | CCCCN1C(=O)C2CC/C(=N/O)CC2C1=O (configuration not stated) | > 4 mM (inactive)

Source: PubChem BioAssay AID1549 (Sanford-Burnham Center for Chemical Genomics, 2009)
